Our source for the Ki and Activity values is ChEMBL document CHEMBL1152558, “A critical electrostatic interaction mediates inhibitor recognition by human asparagine synthetase” (Bioorg Med Chem, 2009).

Experiment [1] deals with T1, Asparagine synthetase [glutamine-hydrolyzing] (Homo sapiens, UniProt P08243).
T1 sequence (P08243 whole entry): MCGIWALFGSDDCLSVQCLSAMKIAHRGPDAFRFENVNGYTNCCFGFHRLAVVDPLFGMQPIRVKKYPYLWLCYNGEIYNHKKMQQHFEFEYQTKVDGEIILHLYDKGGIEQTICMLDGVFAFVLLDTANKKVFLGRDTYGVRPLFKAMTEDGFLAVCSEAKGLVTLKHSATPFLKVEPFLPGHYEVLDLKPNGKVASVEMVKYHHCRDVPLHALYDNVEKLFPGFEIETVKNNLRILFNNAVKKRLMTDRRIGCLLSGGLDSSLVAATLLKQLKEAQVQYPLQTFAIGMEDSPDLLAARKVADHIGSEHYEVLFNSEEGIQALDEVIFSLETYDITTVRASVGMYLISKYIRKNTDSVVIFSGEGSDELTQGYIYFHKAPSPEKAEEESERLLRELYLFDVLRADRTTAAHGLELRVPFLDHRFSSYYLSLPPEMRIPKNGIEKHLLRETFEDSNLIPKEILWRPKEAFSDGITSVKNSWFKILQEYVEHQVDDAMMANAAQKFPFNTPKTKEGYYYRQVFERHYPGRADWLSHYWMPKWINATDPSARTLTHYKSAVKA
Description: Inhibition of human recombinant ASNS expressed in Sf9 insect cells assessed as overall inhibition constant.

Experiment [2] deals with T1, Asparagine synthetase [glutamine-hydrolyzing]. Put plainly: Inhibition of human recombinant ASNS expressed in Sf9 insect cells.
For experiment [3], the target named is T2, Asparagine synthetase [glutamine-hydrolyzing] (Homo sapiens) (UniProt P08243).
T2 sequence (whole entry): T1 sequence (P08243 whole entry)
Put plainly: Inhibition of human recombinant ASNS expressed in Sf9 insect cells assessed as inorganic phosphate production in ammonia-dependent asparagine synthesis using continuous assay.

Experiment [4] addresses T2, Asparagine synthetase [glutamine-hydrolyzing] (Homo sapiens). Put plainly: Inhibition of human recombinant ASNS expressed in Sf9 insect cells assessed as inorganic phosphate production in glutamine-dependent asparagine synthesis using continuous assay.

Active and inactive are the calls of the source. No cut-off for these calls is given here.

The Ki is the equilibrium dissociation constant of an inhibitor or competing ligand from its target. Turning to `C[S+]([O-])(C[C@H](N)C(=O)O)=NP(=O)(O)OC[C@H]1O[C@@H](n2cnc3c(N)ncnc32)[C@H](O)[C@@H]1O` (some centres undefined), the Ki in experiment [1] was determined as 10 µM; in experiment [2] it was 20 µM.

As to `C[S+]([O-])(CC(N)C(=O)O)=NS(=O)(=O)NC[C@H]1O[C@@H](n2cnc3c(N)ncnc32)[C@H](O)[C@@H]1O` (mixture of isomers), the outcome in experiment [3] and in experiment [4] was inactive.
